In patent US20240415845A1, “Compositions of Iboga Alkaloids and Methods of Treatment” (priority 2022, published 2024):
Several values for one entry are separate records, joined by “and”; a condition that tells them apart may be missing. Identical values can stand only once.

Test system: special operations veterans with combat and/or blast exposure
Experiment: Clinician-Administered PTSD Scale for DSM-5 (CAPS-5)
Format: in vivo, human
Source text: The pre-specified primary outcome was change in the World Health Organization Disability Assessment Schedule 2.0 (WHODAS) (Gold L. H. et al., J. Am. Acad. Psychiatry Law 42, 9 (2014)) from baseline to post-treatment, with change from baseline to the one-month follow-up a secondary outcome. Additional pre-specified secondary outcomes included post-treatment changes on the Clinician Administered PTSD Scale (CAPS-5; Weathers, F. W. et al., Psychol. Assess., 30, 383-395 (2018)), Montgomery-Åsberg Depression Rating Scale (MADRS; Montgomery, S. A., Br. J. Psychiatry J. Ment. Sci., 134, 382-389 (1979)) and the Hamilton-Anxiety Rating Scale (HAM-A; Bruss, G. S., et al., Psychiatry Res., 53, 191-202 (1994)). […] An additional dose of magnesium was administered approximately 12 hours later. To assess the significance of post-treatment changes, linear mixed effects (LME) models were used for each outcome measure. False Discovery Rate (FDR; Benjamini, Y. et al., J. R. Stat. Soc. Ser. B Methodol., 57, 289-300 (1995)) was applied to correct for multiple comparisons.
To further assess changes in comorbid psychiatric symptoms identified by the models, mean percent reduction, response rate, and remission rate according to the CAPS-5, MADRS and HAM-A (Table 1) were calculated. Response on the CAPS-5, MADRS, and HAM-A was defined as a reduction of at least 10 points (Mitchell, J. M. et al., Nat. Med. 27, 1025-1033(2021)), 50% (Leucht, S. et al., J. Affect. Disord. 210, 287-293 (2017)), and 50% (McIntyre, A. et al., Depress. Anxiety 24, 487-494 (2007)), respectively; remission as loss of diagnosis and a total score below 12 (Mitchell, J. M. et al. supra), <8 (Leucht, S. et al. supra), and <8(McIntyre, A. et al., supra), respectively. One participant's baseline scores met criteria for remission in all three scales and so were excluded from the calculation of response and remission rates, leaving 29 participants in these specific analyses.
With subjects in the fasting state, an intravenous infusion of 1 gram of magnesium sulfate was administered 1-2 hours prior to treatment. […] Medical staff (MD, RN, or EMT) were onsite at a ratio of at least 1 staff per 2 patients throughout treatment for monitoring and management, but no specific coaching or psychological support was provided during treatment.
Clinician administered scales included CAPS-5 (Clinician-administered PTSD Scale for DSM-5), which is a gold standard assessment of PTSD symptom severity; MADRS (Montgomery-Asberg Depression Rating Scale), a measure for depressive symptom severity: and Hamilton-Anxiety Rating Scale (HAM-A) (Shear, M. K. et al., Depress. Anxiety 13, 166-178 (2001)) a measure for anxiety symptom severity: SCID-5 (Structured Clinical Interview for DSM-5) Overview for a historical and environmental context of symptom presentation: MINI DSM-5 (Mini International Neuropsychiatric Interview from DSM-5) for a structured psychodiagnostics assessment: BAT-L (Boston Assessment of TBI-Lifetime) for a lifetime history of TBI and blast exposure: and Ohio State University TBI Identification Method (Short Form) for a lifetime history of TBI. MADRS testing provides an indication of depressive symptoms, CAPS-5 provides an indication of PTSD and SIGH-A provides an indication of anxiety. Collectively these overlap to provide indication of mood, concentration, sleep and tension.
For the CAPS-5, the test version with a […] structured interview of PTSD symptoms over the past week was used, using a 0 (“Absent”) to 4 (“Extreme/Incapacitating”) scale, with possible total scores ranging from 0) to 80. The score range 23 to 34 is considered moderate PTSD while a higher score represents severe PTSD (Weathers, F. W. et al., Psychol. Assess. 30, 383-395 (2018)).

[1] = 1-mo. post, only participants meeting relevant MINI diagnostic criteria
[2] = 1-mo. post, only participants with mild TBI
[3] = 1-wk. post, only participants meeting relevant MINI diagnostic criteria
[4] = 1-wk. post, only participants with mild TBI

Compound: CCC1CC2CC3c4[nH]c5ccc(OC)cc5c4CCN(C2)C13 (stereo not shown) [ibogaine, Ibogaine]
- CAPS-5 % Reduction vs Baseline [1]: 86% ± 19%
- CAPS-5 Remission Rate [1]: 83%
- CAPS-5 Response Rate [1]: 100%
- CAPS-5 score (1-mo. post, only participants meeting relevant MINI diagnostic criteria at baseline (N 23), baseline 35.7 ± 11.0): 6.0
- CAPS-5 % Reduction vs Baseline [2]: 88% ± 17%
- CAPS-5 Remission Rate [2]: 85%
- CAPS-5 Response Rate [2]: 100%
- CAPS-5 score (1-mo. post, only participants with mild TBI (N 28), baseline 31.7 ± 13.0): 4.8
- CAPS-5 score (1-wk post, only participants meeting relevant MINI diagnostic criteria at baseline (N 23), baseline 35.7 ± 11.0): 4.4
- CAPS-5 % Reduction vs Baseline [3]: 87% ± 17%
- CAPS-5 Remission Rate [3]: 83%
- CAPS-5 Response Rate [3]: 96%
- CAPS-5 % Reduction vs Baseline [4]: 89% ± 14%
- CAPS-5 Remission Rate [4]: 89%
- CAPS-5 Response Rate [4]: 96%
- CAPS-5 score (1-wk. post, only participants with mild TBI (N 28), baseline 31.7 ± 13.0): 3.6
- CAPS-5, effect size D (baseline vs 1-mo. post, only participants meeting relevant MINI diagnostic criteria (N 23)): 2.98
- CAPS-5, effect size D (baseline vs 1-mo. post, only participants with mild TBI (N 28)): 2.49
- CAPS-5, effect size D (baseline vs 1-wk post, only participants with mild TBI (N 28)): 2.28
- CAPS-5, effect size D (baseline vs 1-wk. post, only participants meeting relevant MINI diagnostic criteria (N 23)): 2.75
- CAPS-5, effect size D (baseline vs one-month post, all participants): 2.54
- CAPS-5, effect size D (baseline vs one-week post, all participants): 2.30
- subjects lower than mild PTSD symptom severity (CAPS-5) (one month following treatment (FIG. 3B), mild = 12-22): 80%
- CAPS-5 Remission Rate (one-month post, 29 participants, remission = loss of diagnosis and total score below 12): 86%
- CAPS-5 Response Rate (one-month post, 29 participants, response = reduction of at least 10 points): 100%
- CAPS-5 score (one-month post, all participants, baseline 31.7 ± 12.5, mean ± SD): 4.8
- CAPS-5 % Reduction vs Baseline (one-month post, all participants, mean ± SD): 88% and 88% ± 17%
- CAPS-5 Remission Rate (one-week post, 29 participants, remission = loss of diagnosis and total score below 12): 86%
- CAPS-5 Response Rate (one-week post, 29 participants, response = reduction of at least 10 points): 97%
- CAPS-5 score (one-week post, all participants, baseline 31.7 ± 12.5, mean ± SD): 3.9
- CAPS-5 % Reduction vs Baseline (one-week post, all participants, mean ± SD): 88% ± 15%
